Reference: US20250011347A1, “NOVEL PLASMALOGEN DERIVATIVE” (Institute of Rheological Function of Food Co., Ltd., priority 2021, published 2025)

What was measured:
[1] = system: lysosomes in mouse neurons Neuro2a (N2a); assay: Impaired lysosomal acidification in Neuro2a neurons induced by culture supernatant of LPS-treated BV2; assay type: cell-based; settings: N2a cells, compound 24 hours, then 24 hours in supernatant of LPS-treated BV2 with compound; LysoTracker Red; FIG. 10
Experimental: Lysosomes in mouse neurons Neuro2a (N2a) cultured in a normal DMEM medium were labeled with LysoPrime Green (Dojindo). LysoPrime Green is a fluorescent dye that is highly specific for lysosomes which are acidic organelles and that is resistant to pH changes.
Then, N2a is cultured in the culture supernatant of mouse glial cells BV2 treated with the endotoxin lipopolysaccharide (LPS) (1 μg/ml, 18 h) or the culture supernatant of untreated BV2, and labeled with LysoTracker™ Red DND-99 (Thermo Fisher Scientific) which targets acidic organelles.
That is, it was shown that acidification of the lysosomes in the neurons were impaired by glial cell-derived factors in the medium resulting from inflammation.
Each of the compounds of the present invention, KIT-008, KIT-019 and KIT-020 was added to the medium of N2a cells and cultured for 24 hours, and then cultured for another 24 hours in the culture supernatant of BV2 administered with LPS in the presence of each compound.

IL-1β protein = assay: LPS-induced secreted IL-1β protein in MG6 microglial cells (ELISA); assay type: cell-based, mouse; settings: compound 5 μg/ml 24 hours, then LPS 1 μg/ml 8 hours, ELISA of culture medium, FIG. 4
Experimental: Five-thousand mouse microglial cells (MG6) were cultured in a 96-well dish containing 100 μl of a DMEM medium containing 2% FBS (fetal bovine serum). Then, 5 μg/ml of each of the compounds of the present invention, KIT-019 and KIT-020 was added and cultured for 24 hours. Thereafter, it was treated with LPS (1 μg/ml) for 8 hours. The culture medium was collected, and the secreted IL-1β protein was measured by ELISA using DuoSet Mouse IL-1β (R&D Systems).

p65 (NFkB) [2] = assay: LPS-induced p65 nuclear accumulation in MG6 microglial cells (Western blotting); assay type: cell-based, mouse; settings: compound 5 μg/ml 24 hours, then LPS 1 μg/ml 8 hours, FIG. 3
Experimental: Mouse microglial cells (MG6) were cultured using a DMEM medium containing 2% FBS (fetal bovine serum) for 24 hours under conditions with or without the addition of the compound of the present invention, KIT-019 or KIT-020 (5 μg/ml). Thereafter, it was treated with LPS (1 μg/ml) for 8 hours, proteins in the cell nucleus were extracted, and p65 (NFkB) protein expression was detected by Western blotting using NF-κB p65 (Cell Signaling Technology, the clone name: D14E12) as a primary antibody and Anti-Rabbit IgG HRP-linked antibody (Cell Signaling Technology) as a secondary antibody.

[3] = system: inducible nitric oxide synthase (iNOS); assay: LPS-induced iNOS expression in mouse hippocampal tissue (immunohistochemistry); assay type: in vivo; settings: c57BL6J mice hippocampal tissue, 10 mg/50 kg/day in drinking water 4 weeks, then LPS 10 days; FIG. 15, 16
Experimental: Specifically, 8-week-old male c57BL6J mice were allowed to drink each of the compounds of the present invention (KIT-008 and KIT-020) at a dose of 10 mg/50 kg/day for 4 weeks, and were then subjected to LPS treatment (200 mg/kg/day) for 10 days while allowing them to drink the compound in the same manner. The mouse brain tissue was subjected to an immunohistochemistry (IHC) study using an anti-NeuN antibody (a neuron marker, Millipore MAB377) and an anti-iNOS antibody (an inflammatory marker, Invitrogen PA1-036). DAPI was used to stain a cell nucleus.
In FIG. 15, the scale bar is 50 μm and the arrows indicate iNOS-positive neurons. The data in FIG. 16 represents the average value for each group (3 mice, n=3). In the LPS group, the number of iNOS-positive neurons increased compared to that in the control group, but in the KIT-008 group and the KIT-020 group, the increase in iNOS-positive neurons caused by LPS was suppressed.

c57BL6J mice = assay: Water maze test of mice with LPS-induced memory impairment; assay type: in vivo, mouse; settings: 10 mg/50 kg/day in drinking water 4 weeks, then LPS 7 days, Trial 6, P<0.05, FIG. 12
Experimental: Specifically, 8-week-old male c57BL6J mice (5 mice in each group, n=5) were allowed to drink each of the compounds of the present invention (KIT-008 and KIT-020) at a dose of 10 mg/50 kg/day for 4 weeks, and were then subjected to LPS treatment (200 mg/kg/day) for 7 days while allowing them to drink the compound in the same manner. Thereafter, they were subjected to a water maze test for 2 days (3 trials per day).
Escape Latency indicates the time required to arrive at an escape platform (arrival time). Comparisons between groups were performed by ANOVA test and Bonferroni's post hoc test. […] Therefore, the compounds of the present invention are effective in improving brain function (cognitive function).

p65 (NFkB) [4] = assay: LPS-induced p65 nuclear accumulation in BV2 microglial cells (Western blotting); assay type: cell-based, mouse; settings: compound 5 μg/ml 12 hours, then LPS 1 μg/ml 2 hours, FIG. 2
Experimental: Mouse microglial cells (BV2) were cultured using a DMEM medium containing 2% FBS (fetal bovine serum) for 12 hours under conditions with or without the addition of the compound of the present invention, KIT-008 or KIT-020 (5 μg/ml). Thereafter, it was treated with LPS (1 μg/ml) for 2 hours, proteins in the cell nucleus were extracted, and p65 (NFkB) protein expression was detected by Western blotting using NF-κB p65 (Cell Signaling Technology, the clone name: D14E12) as a primary antibody and Anti-Rabbit IgG HRP-linked antibody (Cell Signaling Technology) as a secondary antibody.

[5] = system: microglia (Iba1-positive cells) and astrocytes (GFAP-positive cells) in hippocampal tissue; assay: LPS-induced amoeboid shaped microglia and astrocytes increase in mouse hippocampal tissue (immunohistochemistry); assay type: in vivo; settings: c57BL6J mice hippocampal tissue, 10 mg/50 kg/day in drinking water 4 weeks, then LPS 10 days
Experimental: Specifically, 8-week-old male c57BL6J mice were allowed to drink each of the compounds of the present invention (KIT-008 and KIT-020) at a dose of 10 mg/50 kg/day for 4 weeks, and were then subjected to LPS treatment (200 mg/kg/day) for 10 days while allowing them to drink the compound in the same manner. The mouse brain tissue was subjected to an immunohistochemistry (IHC) study using Iba1 (a microglia marker, Fujifilm 019-19741) and GFAP (an astrocyte marker, Sigma C9205). DAPI was used to stain a cell nucleus. In FIG. 17, the scale bar is 100 μm. The data in FIG. 18 represent the percentages of amoeboid shaped microglia and amoeboid shaped astrocytes (upper graphs) and the number of astrocytes (GFAP-positive cells) (a lower graph) in each group (3 mice, n=3). In the LPS group, the amoeboid shaped microglia (Iba1-positive cells) and the amoeboid shaped astrocytes (GFAP-positive cells) increased compared to the control group. In addition, the astrocytes (GFAP-positive cells) increased. However, in the KIT-008 group and the KIT-020 group, the LPS-induced amoeboid shaped microglia (Iba1-positive cells) increase and amoeboid shaped astrocytes (GFAP-positive cells) increase and astrocytes (GFAP-positive cells) increase were suppressed.

[6] = system: amyloid beta (Aβ) deposition in hippocampal tissue; assay: LPS-induced amyloid beta (Aβ) deposition in mouse hippocampal tissue (immunohistochemistry); assay type: in vivo; settings: c57BL6J mice hippocampal tissue, 10 mg/50 kg/day in drinking water 4 weeks, then LPS 10 days; FIG. 13, 14
Experimental: Specifically, 8-week-old male c57BL6J mice were allowed to drink each of the compounds of the present invention (KIT-008 and KIT-020) at a dose of 10 mg/50 kg/day for 4 weeks, and were then subjected to LPS treatment (200 mg/kg/day) for 10 days while allowing them to drink the compound in the same manner. The mouse hippocampal tissue was subjected to an immunohistochemistry test using an anti-amyloid beta antibody (a cocktail of two antibodies, 6E10 (BioLegend) and 82E1 (Immuno-Biological Laboratories Co, Ltd)). DAPI was used to stain a cell nucleus. In FIG. 13, the scale bar is 100 μm and the arrows indicate amyloid beta that deposited. The data in FIG. 14 represent the average number of amyloid beta deposition in each group (3 mice, n=3). In the LPS group, amyloid beta deposition was observed compared to the control group, but in the KIT-008 group and the KIT-020 group, amyloid beta deposition caused by LPS was suppressed.

SMILES	impaired acidification of lysosomes in neurons caused by glial cell-derived factors [1]	LPS-induced inflammatory cytokine IL-1β protein expression (IL-1β protein)	LPS-induced p65 nuclear accumulation (p65 (NFkB) [2])	increase in iNOS-positive neurons caused by LPS [3]	memory retention (Escape Latency) compared to the LPS group (c57BL6J mice)	LPS-induced p65 nuclear accumulation (p65 (NFkB) [4])	LPS-induced amoeboid shaped astrocytes (GFAP-positive cells) increase ([5]; FIG. 17, 18)	LPS-induced amoeboid shaped microglia (Iba1-positive cells) increase ([5]; FIG. 17, 18)	LPS-induced astrocytes (GFAP-positive cells) increase (number) ([5]; FIG. 18 lower graph)	amyloid beta deposition caused by LPS [6]
CCCCC/C=C\C/C=C\C/C=C\C/C=C\CCCC(=O)O[C@H](COC/C=C/CCCCCCCCCCCCCCC)COP(=O)(O)OCCN [KIT-020, 2-((hydroxy((R)-2-(((5Z,8Z,11Z,14Z)-icosa-5,8,11,14-tetraenoyl)oxy)-3-(((E)-octadec-2-en-1-yl)oxy)propoxy)phosphoryl)oxy)ethane-1-ammonium 2,2,2-trifluoroacetate]	ameliorated	significantly reduced	significantly suppressed	suppressed	improvement in memory retention	significantly suppressed	suppressed	suppressed	suppressed	suppressed
CCCCCCCC/C=C\CCCCCCCC(=O)O[C@H](COC/C=C/CCCCCCCCCCCCCCC)COP(=O)(O)OCCN [KIT-019, 2-((hydroxy((R)-3-3-(((E)-octadec-2-en-1-yl)oxy)-2-(oleoyloxy)propyl)phosphoryl)oxy)ethane-1-ammonium 2,2,2-trifluoroacetate]	ameliorated	significantly reduced	significantly suppressed	–	–	–	–	–	–	–
